Biological target: T1, ADAM10 (Homo sapiens, UniProt O14672)
T1 construct: purchased R&D Systems 936-AD
T1 sequence (O14672 214-748): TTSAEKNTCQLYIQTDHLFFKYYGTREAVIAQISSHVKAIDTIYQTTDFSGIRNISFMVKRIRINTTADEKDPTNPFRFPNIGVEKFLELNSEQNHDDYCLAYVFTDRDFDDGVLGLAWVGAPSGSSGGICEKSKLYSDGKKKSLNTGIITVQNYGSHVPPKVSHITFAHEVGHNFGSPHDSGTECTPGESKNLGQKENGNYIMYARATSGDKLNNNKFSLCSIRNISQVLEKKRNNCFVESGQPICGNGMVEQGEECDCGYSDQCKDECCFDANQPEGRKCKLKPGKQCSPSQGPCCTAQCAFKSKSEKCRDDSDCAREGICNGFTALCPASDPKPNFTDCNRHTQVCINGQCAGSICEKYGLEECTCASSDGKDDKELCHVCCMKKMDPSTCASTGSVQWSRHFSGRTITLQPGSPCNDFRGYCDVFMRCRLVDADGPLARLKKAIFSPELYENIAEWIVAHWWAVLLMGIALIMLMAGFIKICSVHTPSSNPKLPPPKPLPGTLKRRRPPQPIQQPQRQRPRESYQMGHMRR
Assay: ADAM10 fluorogenic peptide biochemical assay
Procedure: 5 mM Compound stock was prepared in DMSO. Compound plate was prepared by 2-fold dilution for 11-point curve, with highest concentration of 500 μM. 1 μL of compound in DMSO was transferred from compound plate to the assay plate. Enzyme solution was prepared in assay buffer with a concentration of 100 ng/50 μL. Substrate ((7-methoxycoumarin-4-yl)-acetyl-Pro-Leu-Ala-Gln-Ala-Val-(3-[2,4-dinitrophenyl]-L-2,3-diaminopropionyl)-Arg-Ser-Ser-Ser-Arg-NH2 (SEQ ID NO:48)) solution was prepared in assay buffer with a concentration of 20 μM. 50 μL of enzyme solution was added to the assay plate. The assay plate was incubated for 5 minutes. 50 μL of substrate solution was then added to the assay plate. The plate was protected from light and incubated at 37° C. for 4 hours. The reaction was stopped by adding 10 μL of 500 mM EDTA solution. The plate was read on a plate reader with excitation of 320 nm and emission of 405 nm.
Source of enzymes for biochemical assays: Except for ADAM17 and MT1-MMP, all recombinant human MMPs and ADAMs were obtained from R&D Systems (Minneapolis, Minn.). […]
In general, 5 mM compound stock was prepared in DMSO. […] The plate was read on a plate reader with excitation of 320 nm and emission of 405 nm. Percentage of inhibition was calculated for each concentration and IC50 value was generated from curve fitting. […]

IC50: 98 nM
SMILES: Cc1cc([N+](=O)[O-])ccc1N1CCN(C(=O)[C@@H]2[C@@H](C(=O)NO)CC3(CC3)CN2C)CC1 [Compound 5, (6S,7S)-N-hydroxy-5-methyl-6-{[4-(2-methyl-4-nitrophenyl)piperazin-1-yl]-carbonyl}-5-azaspiro[2.5]octane-7-carboxamide]
